Molecules are shown by their SMILES.

The values that follow come from US20220041957A1, “GLUCAMIDE-BASED SURFACTANTS” (Clariant International Ltd., priority 2018, published 2022).

Data set [1] is described as follows: Foam (collapse) test. In kind it is physicochemical. Conditions: 20 mL of 1 wt. % solution, 20 shakes; for Foam Height, 2 min: after 2 min; for Foam Height, 3 min: after 3 min; for Foam Height, 5 min: after 5 min; for Foam Height, Initial: directly after shaking. As for the experimental part:
20 mL of 1 wt. % solution of each substance were placed into a graduated 100 mL measurement cylinder, which was sealed with a stopper. Foam was generated by 20 shakes. The foam height was determined as mL foam above the aqueous layer directly after shaking, after 2, 3 and 5 min.

Data set [2] can be described thus: Wetting test on cotton swatches. Type of data set: physicochemical. Particulars: 0.1 wt. % surfactant solution in water; for Wetting Performance: rating in words; for Wetting time: time until swatch sinks to bottom. As for the experimental part:
Cotton swatches (ISO 8022, obtained from wfk-Testgewebe GmbH) were placed in 600 mL beaker, filled with the corresponding 0.1 wt. % surfactant solution in water. The time between placing the swatches into the solution and sinking to the bottom was measured.

Turning to `CCCCCCCCCCCC(O)CC(=O)N(C)C[C@H](O)[C@@H](O)[C@H](O)[C@H](O)CO` (stereo partly drawn) [Example 2], in data set [1], the “Foam Height, 2 min” value was determined as 60 mL; the “Foam Height, 3 min” value was 33 mL; the “Foam Height, 5 min” value was determined as 19 mL; the “Foam Height, Initial” value is 80 mL. Moreover, in data set [2], the “Wetting Performance” value is recorded as “good” and the Wetting time is given as 60 s.
As to `CN(C[C@H](O)[C@@H](O)[C@H](O)[C@H](O)CO)C(=O)CCCCCCCCCCCCCCCO` [Example 4], in data set [1], the “Foam Height, 2 min” value is given as 67 mL; the “Foam Height, 3 min” value turned out to be 50 mL; the “Foam Height, 5 min” value is listed as 33 mL; the “Foam Height, Initial” value stood at 89 mL. Also, in data set [2], the “Wetting Performance” value is “poor” and the Wetting time is on record as greater than 300 s.
